Results on eight compounds are retold here after US5919765A, “Inhibitors of factor XA” (COR Therapeutics, Inc., priority 1995, dated 1999).

Numbered stars: 1 amine (or outer) side, 2 acyl side, 3 side chain; on linkers, the order of the positions; unused ones are H or OH. Square brackets hold non-standard residues; d marks the D form. Peptide text beside a SMILES is read from it. * marks the point of attachment. dCit = NC(=O)NCCC[C@@H](N)C(=O)O; Suc = O=C(CCC(=O)[*:2])[*:1]; Boc = CC(C)(C)OC(=O)*; Aib = CC(C)(N)C(=O)O

One data set addresses T1, thrombin (Homo sapiens, UniProt P00734).
T1 construct: The formation of thrombin is the result of the proteolytic cleavage of its precursor prothrombin
Kind of data set: Thrombin amidolytic assay (chromogenic substrate Chromozym TH). The class given is biochemical. The note with it: read-out: Inhibitory Activity (IC50) Thrombin.

The test system of data set [1] is Rabbits. Description: Cuticle Bleeding Time model in rabbits. The class given is in vivo, rabbit. The note with it: 1500 μg/kg+14.85 μg/kg/min. As for the experimental part:
In an ancillary study, a Cuticle Bleeding Time model was used to evaluate the effect of test compounds on bleeding time (BT) measurements in rabbits. The standardized protocol involved anesthesia and catheterization of rabbits as previously described in this Example 43. To measure BT, a toe nail was cut 5 mm from the base of the cuticle with a canine nail trimming device. Time until cessation of bleeding was recorded by wicking the blood on to BT blotting paper in 30 second intervals. Test compound was administered as a bolus followed by infusion regimen. Two BT measurements were obtained prior to administration of test compound and three BT measurements accomplished serially after initiation of steady state infusion of test compound. BT measurements were allowed to continue for up to 30 minutes at which time it was stopped with application of silver nitrate. Blood samples were obtained just prior to all BT measurements and processed for measurement of hematological and coagulation parameters.

For data set [2], the system named is Rabbits. Description: Rabbit deep vein thrombosis model. It is filed as in vivo. From the text: Haemost. […] Rabbits were anesthetized with I.M. injections of Ketamine, Xylazine, and Acepromazine cocktail.
Setting [3] is: rabbit venous thrombosis model, bolus + infusion.

One may read the IC50 as the concentration that gives 50% inhibition.

`CC(C)(C)OC(=O)N[C@H](CCCNC(=N)N)C(=O)NC(C)(C)C(=O)N[C@H](C=O)CCCNC(=N)N` [Boc--D--Arg--Aib--Arg--H, Boc-D-Arg-Aib-Arg--H] (Boc-[dR]-[Aib]-Arg-aldehyde): at thrombin, the IC50 is over 500 µM. Regarding `CC(C)(C)OC(=O)N[C@H](CCCN=C(N)N)C(=O)NCC(=O)N[C@H](C=O)CCCN=C(N)N` [Boc--D--Arg--Gly--Arg--H, Boc-D-Arg-Gly-Arg--H] (Boc-[dR]-Gly-Arg-aldehyde), the “changes in hematological parameters from pre to post administration” value in the data set with Rabbits [1] was “no significant changes”. Also, the “effects on hematological parameters as compared to saline controls” value in the data set on Rabbits [2] (setting [3]) was “no significant effects”. For the compound `CC(C)(C)OC(=O)N[C@H](CCCNC(=N)N)C(=O)NCC(=O)N[C@H](C=O)CCCNC(=N)N` [Boc--D--Arg--Gly--Arg--H, Boc-D-Arg-Gly-Arg--H] (Boc-[dR]-Gly-Arg-aldehyde), the results for the “% Inhibition of Thrombosis” value with Rabbits [2] (200 + 1.98 μg/kg + μg/kg/min) and in the data set with Rabbits [2] (600 + 5.94 μg/kg + μg/kg/min) were 8.4% and -6.6%, respectively. Besides, the antithrombotic efficacy entry in the data set with Rabbits [2] (setting [3]) is “demonstrated antithrombotic efficacy at the higher doses evaluated”.

With `CC(C)(C)OC(=O)N[C@H](CCCNC(N)=O)C(=O)NCC(=O)N[C@H](C=O)CCCNC(=N)N` [Boc--D--Cit--Gly--Arg--H, Boc-D-Cit-Gly-Arg--H] (Boc-[dCit]-Gly-Arg-aldehyde), the IC50 on thrombin was over 100 µM.

Regarding `CC(C)(C)OC(=O)N[C@H](CCCCN)C(=O)NCC(=O)N[C@H](C=O)CCCNC(=N)N` [Boc--D--Lys--Gly--Arg--H, Boc-D-Lys-Gly-Arg--H] (Boc-[dK]-Gly-Arg-aldehyde), the IC50 at thrombin is over 100 µM. In the case of `CCOC(=O)N[C@H](CCCNC(=N)N)C(=O)NCC(=O)N[C@H](C=O)CCCNC(=N)N` [EtOCO--D--Arg--Gly--Arg--H, EtO2 C-D-Arg-Gly-Arg--H], the IC50 at thrombin is over 100 µM. The same measure, in the same setting: under `N=C(N)NCCC[C@@H](C=O)NC(=O)CNC(=O)[C@@H](CCCNC(=N)N)NC(=O)CCC(=O)O` [HOOC(CH2)2 CO--D--Arg--Gly--Arg--H, Succinoyl-D-Arg-Gly-Arg--H] (Suc-[dR]-Gly-Arg-aldehyde) stands over 100 µM; under `N=C(N)NCCC[C@@H](C=O)NC(=O)CNC(=O)[C@@H](CCCNC(=N)N)NC(=O)CC(=O)O` [HOOCCH2 CO--D--Arg--Gly--Arg--H, Malonoyl-D-Arg-Gly-Arg--H], over 100 µM.
